Experimental data taken from patent US6693082B2, “Method of inhibiting metastatic dissemination using desmopressin” (priority 1999, dated 2004).
Marks after values point to notes of the source that are not given here.

Tests used:
[1] = in vivo, cited from earlier work
[2] = tested on: murine mammary cancer cell line F3II (sarcomatoid carcinoma); assay: Assay 1: inhibition of pulmonary metastatic colonization, i.v. inoculated F3II cells in BALB/c mice; type: in vivo
Protocol: (§1) Assay 1: Inhibition of Metastatic Colonization by the Application of Desmopressin 12-16 weeks old syngenic mice from the BALB/c strain weighing 25 g on average were used. As tumor cells, murine mammary cancer cell lines […] (sarcomatoid carcinoma) and LM3 (poorly differentiated adenocarcinoma) were used and kept in monolayer culture in minimum essential medium (MEM, Gibco, Grand Island, N.Y.), supplemented with 5% heat-inactivated bovine fetal serum, 2 mM glutamine and gentamicine 80 μg/ml ([…]. Farías, […]. Bal de Kier Joffé, Characterization of […], a Mammary Sarcomatoid Carcinoma Cell Line Originated From a Mouse Adenocarcinoma, J. Surg. Oncol. 1996, 62:288-97). In order to collect them, cells were trypsinized following conventional procedures. Desmopressin available from Ferring Pharmaceuticals (Malmo, Sweden) was used. Desmopressin as provided by Sigma Chemical Co. (St. Louis, Miss.) was also employed. Mice were inoculated with tumor cells at a concentration of 2×10^5 cells/0.3 ml MEM/mouse in the side vein of their tails, in accordance with the following schedule and using eight animals in each group: Coinjection with Desmopressin: tumor cells were preincubated in serum-free MEM and i.v. coinjected with desmopressin, at a final dose of 1 μg ([…] cells) or 2 μg (LM3 cells) per kg of body weight. Preincubation with Desmopressin: tumor cell suspensions were preincubated in serum-free MEM for 30-60 minutes at 37° C., in the presence of equivalent concentrations of desmopressin (80-160 ng/ml MEM). Then, cells were pelleted, resuspended in serum-free MEM and i.v. injected in the absence of desmopressin. Control: animals inoculated with tumor cells, with no desmopressin treatment. Three weeks after inoculation, lung weights were quantified and the number of pulmonary metastatic nodules was determined under the dissection microscope.

[3] = tested on: mammary carcinoma murine model F3II; settings: F3II cells in culture; 100 ng/ml at 1 μg/ml; cited from earlier work
[4] = tested on: breast carcinoma tumor cells F3II; assay: Assay 2: extension of desmopressin action on experimental metastases (i.v. injection after tumor cell inoculation); type: in vivo, mice
Protocol: Assay 2: Extension of Desmopressin Action on Experimental Metastases Four groups of ten mice each were organized, and were inoculated with breast carcinoma tumor cells […], in accordance with the above description for Assay 1. Thereafter they were intravenously injected with desmopressin in 0.1 ml of physiological solution at different times (1.5 hours, 3 hours and 24 hours) after the inoculation with tumor cells. Quantification of pulmonary weights took place three weeks after tumoral inoculation. The results are depicted in FIG. 1, in which they are expressed as media±error standard. Similar results were obtained by quantifying the number of pulmonary metastatic nodules per animal.

[5] = tested on: murine mammary cancer cell line LM3 (poorly differentiated adenocarcinoma); assay: Assay 1: inhibition of pulmonary metastatic colonization, i.v. inoculated LM3 cells in BALB/c mice; type: in vivo
Protocol: as §1

[6] = tested on: F3II tumor cell suspensions; assay: Assay 3A: cell survival of tumor cell suspensions, trypan blue; type: cell-based, murine; settings: 80 ng/ml and 160 ng/ml; 1-5 hours at 37° C. in serum-free MEM
Protocol: Assay 3: Cell Survival and Cytotoxicity In Vitro
A. F3II tumor cell suspensions were incubated at 37° C. in serum-free MEM: in the absence of desmopressin, in the presence of desmopressin, at concentrations of 80 ng/ml, in the presence of desmopressin, at concentrations of 160 ng/ml.
After 1-5 hours, cellular viability was assessed by the trypan blue technique. The results are shown in FIG. 2, where the absence of desmopressin (squares) and the presence of desmopressin are represented at concentrations of 80 ng/ml (triangles) and of 160 ng/ml (circles).

[7] = mouse, in vivo; cited from earlier work
[8] = human, in vivo; cited from earlier work

Structure (SMILES) | Half-life ([1]; iv, 20 ug) [h] | Drug eliminated unmetabolized [1] [%] | Number of median pulmonary nodules (range) ([2]; F3II cells preincubated 30-60 minutes at 37° C. with desmopressin (80-160 ng/ml MEM), injected in absence of desmopressin, three weeks) | Decrease in number of metastatic nodules ([2]; F3II cells, coinjection with desmopressin vs control) | Number of median pulmonary nodules (range) ([2]; F3II cells, i.v. coinjection with desmopressin, final dose 1 μg per kg, three weeks after inoculation, p < 0.01 vs control) | Incidence of metastatic nodules after tumor cell preincubation in vitro ([2]; F3II cells, preincubation with equivalent concentrations of desmopressin) | Breast cancer cell proliferation [3] | Urokinase secretion [3] | Extrapulmonary metastases ([4]; animals treated with desmopressin) | Inhibition of metastases (pulmonary weights, FIG. 1) ([4]; desmopressin i.v. 24 hours after inoculation of tumor cells, three weeks after inoculation) | Number of median pulmonary nodules (range) ([5]; LM3 cells preincubated 30-60 minutes at 37° C. with desmopressin (80-160 ng/ml MEM), injected in absence of desmopressin, three weeks) | Decrease in number of metastatic nodules ([5]; LM3 cells, coinjection with desmopressin vs control) | Number of median pulmonary nodules (range) ([5]; LM3 cells, i.v. coinjection with desmopressin, final dose 2 μg per kg, three weeks after inoculation, p < 0.01 vs control) | Incidence of metastatic nodules after tumor cell preincubation in vitro ([5]; LM3 cells, preincubation with equivalent concentrations of desmopressin) | Cell viability of tumor cell suspensions (trypan blue, FIG. 2) [6] | Effects of high dose in mice [7] | Thrombotic risk [8] [%]
NC(=O)CC[C@@H]1NC(=O)[C@H](Cc2ccccc2)NC(=O)[C@H](Cc2ccc(O)cc2)NC(=O)CCSSC[C@@H](C(=O)N2CCC[C@H]2C(=O)N[C@H](CCCN=C(N)N)C(=O)NCC(N)=O)NC(=O)[C@H](CC(N)=O)NC1=O [desmopressin, 1-deamino-8-D-arginine vasopressin] | ≤ 2.67 | 60 | 19 (3-66) | about 70% | 5 (0-12)* | did not lessen the incidence of metastatic nodules | able to modulate | able to modulate | No extrapulmonary metastases were found | inhibition of metastases was also effected | 12 (8-37) | about 70% | 3 (1-18)* | did not lessen the incidence of metastatic nodules | did not reduce cell viability | no relevant effects | 0.0001
NC(=O)CC[C@@H]1NC(=O)[C@H](Cc2ccccc2)NC(=O)[C@H](Cc2ccc(O)cc2)NC(=O)[C@@H](N)CSSC[C@@H](C(=O)N2CCC[C@H]2C(=O)N[C@@H](CCCN=C(N)N)C(=O)NCC(N)=O)NC(=O)[C@H](CC(N)=O)NC1=O [vasopressin] | – | – | – | – | – | – | able to modulate | able to modulate | – | – | – | – | – | – | – | – | –
